Reference: PubChem BioAssay (NCI)
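How tested: cells in 96-well plates exposed to compound for 48 hours at five concentrations. The concentration for 50% growth inhibition is given as GI50. TGI denotes the concentration required for complete inhibition of growth.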

Key:
Test in all cases: growth of human tumour cells (NCI), 48 h
786-0 renal = test system: 786-0 renal
A498 renal = test system: A498 renal
A549 NSCLC = test system: A549 NSCLC
ACHN renal = test system: ACHN renal
BT-549 breast = test system: BT-549 breast
CAKI-1 renal = test system: CAKI-1 renal
CCRF-CEM leukemia = test system: CCRF-CEM leukemia
COLO 205 colon = test system: COLO 205 colon
DU-145 prostate = test system: DU-145 prostate
EKVX NSCLC = test system: EKVX NSCLC
HCC-2998 colon = test system: HCC-2998 colon
HCT-116 colon = test system: HCT-116 colon
HCT-15 colon = test system: HCT-15 colon
HL-60(TB) leukemia = test system: HL-60(TB) leukemia
HOP-62 NSCLC = test system: HOP-62 NSCLC
HOP-92 NSCLC = test system: HOP-92 NSCLC
HS 578T breast = test system: HS 578T breast
HT29 colon = test system: HT29 colon
IGROV1 ovarian = test system: IGROV1 ovarian
K-562 leukemia = test system: K-562 leukemia
KM12 colon = test system: KM12 colon
LOX IMVI melanoma = test system: LOX IMVI melanoma
M14 melanoma = test system: M14 melanoma
MCF7 breast = test system: MCF7 breast
MDA-MB-231 breast = test system: MDA-MB-231 breast
MOLT-4 leukemia = test system: MOLT-4 leukemia
NCI-H226 lung = test system: NCI-H226 lung
NCI-H23 lung = test system: NCI-H23 lung
NCI-H460 lung = test system: NCI-H460 lung
NCI-H522 lung = test system: NCI-H522 lung
NCI/ADR-RES ovarian = test system: NCI/ADR-RES ovarian
OVCAR-3 ovarian = test system: OVCAR-3 ovarian
OVCAR-4 ovarian = test system: OVCAR-4 ovarian
OVCAR-8 ovarian = test system: OVCAR-8 ovarian
PC-3 prostate = test system: PC-3 prostate
RPMI-8226 leukemia = test system: RPMI-8226 leukemia
SF-268 CNS = test system: SF-268 CNS
SF-295 CNS = test system: SF-295 CNS
SF-539 CNS = test system: SF-539 CNS
SK-MEL-2 melanoma = test system: SK-MEL-2 melanoma
SK-MEL-28 melanoma = test system: SK-MEL-28 melanoma
SK-MEL-5 melanoma = test system: SK-MEL-5 melanoma
SK-OV-3 ovarian = test system: SK-OV-3 ovarian
SN12C renal = test system: SN12C renal
SNB-19 CNS = test system: SNB-19 CNS
SNB-75 CNS = test system: SNB-75 CNS
SR leukemia = test system: SR leukemia
SW-620 colon = test system: SW-620 colon
T-47D breast = test system: T-47D breast
TK-10 renal = test system: TK-10 renal
U251 CNS = test system: U251 CNS
UO-31 renal = test system: UO-31 renal

SMILES: Cc1ccc2c(c1)C(C)Cc1c(ncnc1-n1cnc3ccccc31)N2C (centres undefined)
- GI50 (786-0 renal): 0.737 µM
- TGI (786-0 renal): 19.8 µM
- GI50 (A498 renal): 0.22 µM
- TGI (A498 renal): 17.1 µM
- GI50 (A549 NSCLC): 0.973 µM
- TGI (A549 NSCLC): 17.3 µM
- GI50 (ACHN renal): 0.953 µM
- TGI (ACHN renal): 20.3 µM
- GI50 (BT-549 breast): 1.37 µM
- TGI (BT-549 breast): 20.6 µM
- GI50 (CAKI-1 renal): 0.337 µM
- TGI (CAKI-1 renal): 17.8 µM
- GI50 (CCRF-CEM leukemia): 0.267 µM
- TGI (CCRF-CEM leukemia): 12.6 µM
- GI50 (COLO 205 colon): 0.285 µM
- TGI (COLO 205 colon): 0.818 µM
- GI50 (DU-145 prostate): 0.529 µM
- TGI (DU-145 prostate): 14.4 µM
- GI50 (EKVX NSCLC): 0.511 µM
- TGI (EKVX NSCLC): 17.5 µM
- GI50 (HCC-2998 colon): 1.24 µM
- TGI (HCC-2998 colon): 13.6 µM
- GI50 (HCT-116 colon): 0.407 µM
- TGI (HCT-116 colon): 11.9 µM
- GI50 (HCT-15 colon): 0.414 µM
- TGI (HCT-15 colon): 12.7 µM
- GI50 (HL-60(TB) leukemia): 0.255 µM
- TGI (HL-60(TB) leukemia): 0.705 µM
- GI50 (HOP-62 NSCLC): 0.433 µM
- TGI (HOP-62 NSCLC): 16 µM
- GI50 (HOP-92 NSCLC): 6.76 µM
- TGI (HOP-92 NSCLC): 27.7 µM
- GI50 (HS 578T breast): 0.376 µM
- TGI (HS 578T breast): 28.9 µM
- GI50 (HT29 colon): 0.34 µM
- TGI (HT29 colon): 12.1 µM
- GI50 (IGROV1 ovarian): 1.17 µM
- TGI (IGROV1 ovarian): 28.4 µM
- GI50 (K-562 leukemia): 0.0801 µM
- TGI (K-562 leukemia): 14.1 µM
- GI50 (KM12 colon): 0.434 µM
- TGI (KM12 colon): 16.6 µM
- GI50 (LOX IMVI melanoma): 0.705 µM
- TGI (LOX IMVI melanoma): 16.2 µM
- GI50 (M14 melanoma): 0.242 µM
- TGI (M14 melanoma): 15.7 µM
- GI50 (MCF7 breast): 0.0986 µM
- TGI (MCF7 breast): 13.1 µM
- GI50 (MDA-MB-231 breast): 0.809 µM
- TGI (MDA-MB-231 breast): 18.2 µM
- GI50 (MOLT-4 leukemia): 0.426 µM
- TGI (MOLT-4 leukemia): 15 µM
- GI50 (NCI-H226 lung): 3.5 µM
- TGI (NCI-H226 lung): 27.4 µM
- GI50 (NCI-H23 lung): 0.727 µM
- TGI (NCI-H23 lung): 18 µM
- GI50 (NCI-H460 lung): 0.38 µM
- TGI (NCI-H460 lung): 12 µM
- GI50 (NCI-H522 lung): 0.204 µM
- TGI (NCI-H522 lung): 10.8 µM
- GI50 (NCI/ADR-RES ovarian): 0.275 µM
- TGI (NCI/ADR-RES ovarian): 14.8 µM
- GI50 (OVCAR-3 ovarian): 0.313 µM
- TGI (OVCAR-3 ovarian): 10.8 µM
- GI50 (OVCAR-4 ovarian): 2.51 µM
- TGI (OVCAR-4 ovarian): 22.5 µM
- GI50 (OVCAR-8 ovarian): 0.592 µM
- TGI (OVCAR-8 ovarian): 32.7 µM
- GI50 (PC-3 prostate): 0.284 µM
- TGI (PC-3 prostate): 36.4 µM
- GI50 (RPMI-8226 leukemia): 0.337 µM
- TGI (RPMI-8226 leukemia): 15.9 µM
- GI50 (SF-268 CNS): 1.19 µM
- TGI (SF-268 CNS): 17.7 µM
- GI50 (SF-295 CNS): 0.189 µM
- TGI (SF-295 CNS): 11.8 µM
- GI50 (SF-539 CNS): 0.337 µM
- TGI (SF-539 CNS): 13.5 µM
- GI50 (SK-MEL-2 melanoma): 0.547 µM
- TGI (SK-MEL-2 melanoma): 21.9 µM
- GI50 (SK-MEL-28 melanoma): 12.3 µM
- TGI (SK-MEL-28 melanoma): 29 µM
- GI50 (SK-MEL-5 melanoma): 0.434 µM
- TGI (SK-MEL-5 melanoma): 10.2 µM
- GI50 (SK-OV-3 ovarian): 0.475 µM
- TGI (SK-OV-3 ovarian): 13.5 µM
- GI50 (SN12C renal): 0.915 µM
- TGI (SN12C renal): 21.9 µM
- GI50 (SNB-19 CNS): 0.537 µM
- TGI (SNB-19 CNS): 21 µM
- GI50 (SNB-75 CNS): 0.3 µM
- TGI (SNB-75 CNS): 20.1 µM
- GI50 (SR leukemia): 0.0649 µM
- TGI (SR leukemia): 11 µM
- GI50 (SW-620 colon): 0.281 µM
- TGI (SW-620 colon): 17 µM
- GI50 (T-47D breast): 0.601 µM
- TGI (T-47D breast): 32.2 µM
- GI50 (TK-10 renal): 13.1 µM
- TGI (TK-10 renal): 29.4 µM
- GI50 (U251 CNS): 0.415 µM
- TGI (U251 CNS): 15.9 µM
- GI50 (UO-31 renal): 0.939 µM
- TGI (UO-31 renal): 17.9 µM
